Test results from patent publication US12662493B2, “Non-immunosuppressive FK506 analogs and use thereof” (The Johns Hopkins University, priority 2019, dated 2026).

What was measured:
Jurkat T cells = assay: Resazurin-based cell viability assay of Jurkat cells; settings: 3 days, concentrations up to 10 μM
Description: (§1) Jurkat (E6.1, ATCC) cells were cultured in RPMI with 10% FBS and 1.5% PennStrep. Jurkat cells (1×10^6) were transfected with 10 μg of BRE-Luciferase (kindly provided by Martine Roussel & Peter ten Dijke) or NFAT-Luciferase cDNA (Promega) by electroporation (BioRad, square-wave, 250V, […]) in 400 μL serum/antibiotic free RPMI with 0.5% DMSO. Thirty minutes after transfection, cells were transferred to complete RPMI and rested overnight. Before plating, cells were re-suspended in fresh media and diluted to 0.5×10^6 cells/mL. HEK293T cells were cultured in DMEM with 10% FBS, 1% PennStrep, and 500 μg/mL G418 (Corning). Cells were transfected using SuperFect reagent and supplied transfection protocols. HUVEC cells were cultured in Lonza Endothelial Cell Growth Medium (EGM-2) and used between passages 3 and 7. All cells were cultured at 37° C. with 5% CO2.
Jurkat or HUVEC cells were plated at 1000 cells/well in 180 μL growth media before addition of 20 μL of 10X drug/protein stock. After incubation for 72 h, 22 μL of a resazurin sodium salt solution (0.1 mg/mL stock in water) was added to each well and allowed to incubate at 37° C. The metabolic conversion of resazurin dye was monitored by absorbance at 570 nm after 6 h. After background subtraction (media only+dye), absorbance values were left as arbitrary absorbance units or normalized to those obtained from cells treated with DMSO.

[1] = test system: BMP signaling pathway (ID1 gene promoter); assay: BMP-response-element (BRE) luciferase pathway reporter in Jurkat T cells; format: cell-based; settings: for reduction of FK506- or FKVP-induced BRE reporter activity: LDN at 100 nM; for BRE reporter (ID-1 promoter luciferase) activation: 18 h, normalized to DMSO
Description: as §1
Jurkat T cells transfected with BRE-Luc were split into a 96-well plate (80 μL/well of 0.5×10^6 cells/mL)) and treated with previously stated compounds/proteins (20 μL of 5X stock in RPMI, 0.5% DMSO) for 18 h. rBMP-4 and […] (R&D) were used as positive and negative controls, respectively. Plates were centrifuged at 3000 rpm for 10 min, then carefully aspirated. Cells were re-suspended in 100 μL lysis buffer (per well) and placed on a plate-shaker for 30 min. An aliquot of 80 μL of lysate was transferred to a white-walled 96-well plate, and luminescence was recorded 2 seconds after automated injection of luciferase substrate. Luminescence values were background subtracted (lysis buffer+substrate) and normalized to DMSO control values.
FKBP12KO Jurkat T cells transfected with FKBP12-SNAP plasmid were selected with 1200 μg/mL G418 for seven days before use in BRE-Luc assays.

[2] = test system: BMP type 1 receptor (SMAD1/5 phosphorylation); assay: SMAD1/5 phosphorylation Western blot in Jurkat cells; format: cell-based; settings: LDN treatment
[3] = test system: full-thickness excisional wounds; assay: In vivo excisional wound model in diabetic GK rats; design: species or system Goto-Kakizaki (GK) type-2 diabetic rats
Description: Goto-Kakizaki (GK) type-2 diabetic rats obtained from Charles River (Boston, MA) were housed in a pathogen-free facility and cared for according to NIH guidelines and a protocol approved by the Johns Hopkins University Animal Care and Use Committee (ACUC). Both male and female GK rats at age of 4-5 months were used in this study.
(§2) Full-thickness wounds were created in the dorsal skin of rats with a sterile disposable biopsy punch (8 mm in diameter). The animals were injected subcutaneously with saline, AMD3100 (1 mg/kg) plus FK506 (0.1 mg/kg) or AMD3100 (1 mg/kg) plus FKVP (0.1 mg/kg) immediately after wounding and every other day until complete healing, defined as complete re-epithelialization of the wound area. For assessing the role of BMP signaling, animals were injected intraperitoneally (i.p.) with LDN-193189 (2 mg/kg/day) in addition to standard saline or AF treatment. Wounds were evaluated daily according to the method described previously (Lin et al., 2014).
The one-way analysis of variance (ANOVA) was used to determine the statistically difference in wound healing among AF, AF+LDN, Saline and S+LDN groups or between AF, AV and Saline groups when comparing days of wound healing.

[4] = test system: CD133+ stem cells in wound sites; assay: CD133 immunohistochemistry of wound tissue of GK rats; format: in vivo, Goto-Kakizaki (GK) type-2 diabetic rats; settings: day 7, versus AF
Description: as §2
Cut sections of 5 μm were prepared from frozen tissue for immunohistochemistry staining. Frozen sections were fixed with acetone at −20° C. for 10 min and dried for 1 h at room temperature. After inactivation of endogenous peroxidase and blocking of nonspecific antibody binding, the specimens were incubated with anti-CD133 (1:300, ab19898; Abcam) at 4° C. overnight. The tissue sections were then subsequently incubated with biotin-conjugated goat anti-rabbit IgG (1:200, #14708S Cell Signaling, Danvers, MA) for 30 minutes at room temperature. The VectaStain Elite ABC kit (HRP) (Vector Laboratories, Burlingame, CA) was used to increase the sensitivity of the staining. […]

[5] = test system: full-thickness excisional wounds; settings: mouse, in vivo; cited from earlier work
[6] = test system: cell migration stimulated by CXCL12; settings: cited from earlier work

Question: For `C=CC[C@@H]1/C=C(\C)C[C@H](C)C[C@H](OC)[C@H]2O[C@@](O)(C(=O)C(=O)N3CCCC[C@H]3C(=O)O[C@H](/C(C)=C/[C@@H]3CC[C@@H](O)[C@H](OC)C3)[C@H](C)[C@@H](O)CC1=O)[C@H](C)C[C@@H]2OC` [FK506], which cell viability (Jurkat T cells) is on record?
Answer: The cell viability was “did not affect cell viability”.

Question: Which results are given for `c1ccc2c(-c3cnn4cc(-c5ccc(N6CCNCC6)cc5)cnc34)ccnc2c1` [LDN-193189]?
Answer: reduction of FK506- or FKVP-induced BRE reporter activity [1]: completely blocked; effect on FK506/FKVP-induced SMAD1/5 phosphorylation [2]: abolished; time for complete healing, LDN added to AF combination ([3]; LDN-193189 2 mg/kg/day i.p. plus AF): 25 days; effect on wound healing, LDN alone ([3]; LDN-193189 2 mg/kg/day i.p. with saline): no effect on wound healing; number of CD133+ cells in the wounds, LDN added to AF combination [4]: dramatically reduced

Question: For `c1cc(CN2CCCNCCNCCCNCC2)ccc1CN1CCCNCCNCCCNCC1` [AMD3100, 1,1′-[1,4-phenylenebis(methylene)]bis-1,4,8,11-tetraazacyclo-tetradecane], which “BRE reporter (ID-1 promoter luciferase) activation” value [1] is on record?
Answer: The value was “no effect on ID-1 promoter stimulation”.

Question: What about the “healing, AMD3100 treatment alone” value [5] of the same molecule?
Answer: The value was “only slightly faster healing”.

Question: What about the IC50 [6] of the same molecule?
Answer: Its IC50 is 51 ± 17 nM.

B1: Noggin: extracellular BMP-inhibitor protein (protein, UniProt Q13253 28-232, looked up)
Noggin: QHYLHIRPAPSDNLPLVDLIEHPDPIFDPKEKDLNETLLRSLLGGHYDPGFMATSPPEDRPGGGGGAAGGAEDLAELDQLLRQRPSGAMPSEIKGLEFSEGLAQGKKQRLSKKLRRKLQMWLWSQTFCPVLYAWNDLGSRFWPRYVKVGSCFSKRSCSVPEGMVCKPSKSVHLTVLRWRCQRRGGQRCGWIPIQYPIISECKCSC
Question: With B1 as the molecule, how does the “reduction of FK506- or FKVP-induced BRE reporter activity” value [1] read?
Answer: Its value is “not effective at reducing”.

B2: BMP4: recombinant BMP-4 protein, positive control of the BRE reporter (protein, UniProt P12644 293-408, looked up)
Bone morphogenetic protein 4: SPKHHSQRARKKNKNCRRHSLYVDFSDVGWNDWIVAPPGYQAFYCHGDCPFPLADHLNSTNHAIVQTLVNSVNSSIPKACCVPTELSAISMLYLDEYDKVVLKNYQEMVVEGCGCR
Question: For B2, which “BRE reporter (ID-1 promoter luciferase) activation” value [1] is on record?
Answer: Its value is “strong induction of luciferase expression”.
